These results are taken from publication PMC3242598, “Phase I study of BIBF 1120 with docetaxel and prednisone in metastatic chemo-naive hormone-refractory prostate cancer patients” (British Journal of Cancer, 2011).

Entries after “also recorded” stand apart in the source; their conditions may differ. Like-named read-outs stand apart in the source and are kept apart here.

What is called Cmax is the peak of the concentration-time curve. In general, Tmax refers to the time at which the peak concentration occurs.

In data set [1] the test system is metastatic hormone-refractory prostate cancer (HRPC). In words: Evaluation of response (PSA decline, RECIST). It counts as in vivo, human. The procedure:
All patients who received at least one dose of BIBF 1120 or docetaxel were assessed during the safety analysis. Intensity of AEs was graded according to Common Terminology Criteria for Adverse Events (CTCAE) version 3.0. Objective response was defined as a PSA decline ⩾50% from the baseline value over two consecutive courses and/or tumour response according to RECIST criteria ([Therasse et al, 2000]).

Details of data set [2]: method as in Mross et al, 2010. The settings on record: monotherapy phase I; ref Mross et al, 2010; cited from earlier work.
The nature of data set [3]: Plasma pharmacokinetics of BIBF 1120 (HPLC-MS/MS). It counts as in vivo, human. To be noted: for Cmax / AUC(0-t) / half-life / Tmax: human, plasma, po, 250 mg; for Cmax: read-out: Cmax, gMean (gCV%); for AUC(0-t): read-out: AUC0−24, gMean (gCV%); for half-life: read-out: t1/2, gMean (gCV%) (converted); for Tmax: read-out: tmax, median and range. The procedure:
Plasma concentrations of BIBF 1120 and docetaxel were analysed by a validated method using high-performance liquid chromatography coupled with tandem mass spectrometry (HPLC-MS/MS) in the Department of Drug Metabolism and Pharmacokinetics (Boehringer Ingelheim Pharma GmbH & Co KG, Biberach, Germany). The assay comprises sample clean-up by automated solid-phase extraction in a 96-well plate format. Chromatography was achieved on an analytical C18 reversed phase HPLC column with gradient elution. The substance was detected and quantified by HPLC-MS/MS using electrospray ionisation in the positive ion mode. Docetaxel was analysed by HPLC-MS/MS using paclitaxel as an internal standard. The assay comprises sample clean-up by liquid–liquid extraction and chromatography on an analytical C18 reversed phase HPLC column with isocratic elution. […] For docetaxel, the lower limit was 2.5 ng ml^−1 plasma, using a plasma volume of 100 μl. The calculated parameters were plasmatic peak concentrations following the first dose (Cmax), half-life time (t1/2), area under the plasma concentration–time curve (AUCt), apparent clearance after oral administration, and apparent volume of distribution during the terminal phase.

[4] abbreviates: oral 250 mg BID, day 2 of treatment cycle 2, with docetaxel.
Where [5] appears, read: male, oral 250 mg BID, day 2 of treatment cycle 1.
Setting [6] is: male, oral 250 mg BID, treatment cycle 2.

In the case of `COC(=O)c1ccc2c(c1)NC(=O)/C2=C(\Nc1ccc(N(C)C(=O)CN2CCN(C)CC2)cc1)c1ccccc1` [BIBF 1120], the “Estimated progression-free survival rate at 24 weeks” value in data set [1] (250 mg BID + docetaxel/prednisone) is listed as 56%. The “Patients with ⩾50% reduction in PSA levels from baseline (PSA response)” value in data set [1] (19 assessable patients, BIBF 1120 + docetaxel/prednisone) came out at 68.4%. The “Patients with disease response (PSA and/or RECIST)” value in data set [1] (19 evaluable patients, BIBF 1120 100–250 mg BID + docetaxel/prednisone) came out at 73.7%. In addition, the “Patients with complete biological response with normalisation of PSA” value in data set [1] (BIBF 1120 + docetaxel/prednisone) came out at 33.3%. In addition, in data set [2], the t1/2 is listed as roughly 15 h. Also, the “Exposure with increasing doses” value in data set [3] (100–250 mg BID) is on record as “dose-dependent increase in exposure”. In data set [3] (BIBF 1120 BID dosing), the “Time to reach steady state” value is 7 days. In addition, the “PK interaction between BIBF 1120 and docetaxel/prednisone” value in data set [3] (combination therapy) is “no interactions; also recorded: no hint for PK interaction; also recorded: no indication of PK interaction”. The Cmax is 45.9 ng/mL in data set [3] (setting [4]) and 65 ng/mL in data set [3] (male, oral 250 mg BID, day 2 of treatment cycle 1, with docetaxel). The AUC(0-t) was determined as 454 ng·h/mL in data set [3] (setting [5]) and 410 ng·h/mL in data set [3] (setting [6]). Further, the half-life was 7.03 h in data set [3] (setting [5]) and 15.4 h in data set [3] (male, oral 250 mg BID, day 2 of treatment cycle 2). The Tmax in data set [3] (male, oral 250 mg BID, treatment cycle 1) was found to be 3 h; in data set [3] (setting [6]), 2.08 h. For the same compound, the “Cmax, gMean (gCV%)” value in data set [3] (setting [4]) is recorded as 45.8 (98.5) ng ml^−1.
